Values joined by “and” are separate entries in the source; they are usually repeats but may differ in a detail not shown here. Identical values can stand only once. Active and inactive are the calls of the source.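 Rule for the calls: active = compounds giving half or more protection of infected cells from virus-caused growth loss, again on retest; inactive = the rest.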
Tested on: CEM cells HIV-1 protection, formazan growth assay
Assay: NCI AIDS Antiviral Assay
Conditions: for IC50: measured here: growth of uninfected CEM cells
Procedure, shortened: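 Five concentrations of each compound were applied to infected and uninfected human CEM cells. Protection from HIV-1 was judged from growth measured with a soluble formazan assay.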

SMILES | EC50 [µM] | IC50 | outcome
COc1ccc(SCc2cc(OC)c(OC)c(OC)c2)cc1OC | > 200 | 45.7 µM | 
CC1(C)N/C(=C\C=O)C(C)(C)N1O | > 200 | > 200 µM | 
O=C1NC2c3c(I)sc(I)c3C(=O)C2O1 (stereo not drawn) | 0.603 | 1.12 µM | 
CN(C)c1nc(=Nc2ccc3ccccc3c2)ss1 |  |  | inactive
CCCCCCCCCCCCOC(=N)N(C)C | > 200 | 2 µM | 
CC(=O)Nc1nc2c(=O)c3ccccc3sc2s1 |  |  | inactive
CCOC(=O)NC(Nc1ncn(C(NC(=O)OCC)(C(F)(F)F)C(F)(F)F)n1)(C(F)(F)F)C(F)(F)F | > 200 | > 200 µM | 
COc1ccc2c3c1OC1CC(O)C=CC31CCN(C)C2 (stereo not drawn) | > 200 | > 200 µM | 
CC(C)(CN1CCCCC1)C(=O)CC(SCCS(=O)(=O)O)c1ccc(Cl)c(Cl)c1 (stereo not drawn) | > 200 | 1.2 µM | 
COc1ccc(Nc2nc3c(s2)c(C)c(O)c2ccccc23)cc1 | > 2.88 | 0.851 µM | 
CCCCCCCc1ccc(OC2OC(CO)C(O)C(O)C2O)cc1 (stereo not drawn) | > 126 | 29.5 µM and 10.2 µM | 
CCOC(=O)CC(C)C1(C=O)CCCCC1=O (stereo not drawn) | > 759 | > 759 µM | 
NC(C(F)(F)F)(C(F)(F)F)P(=O)(c1ccccc1)c1ccccc1 | > 200 | > 200 µM | 
Br/C=C(\Br)C[N+]12CN3CN(CN(C3)C1)C2 | > 200 | 110 µM | 
Cc1c(C(=O)C/C(=N/NC(=O)C[N+](C)(C)C)C(=O)Nc2ccc(Cl)cc2)[n+](=O)c2ccccc2n1O | > 9.12 | > 9.12 µM | 
Cn1ccc(=NS(=O)(=O)c2ccccc2)cc1 |  |  | inactive
O=C(Nc1cc(Cl)ccc1Cl)C(=O)C(c1cnc2ccccc2n1)[N+](=O)[O-] (stereo not drawn) | > 89.1 | 38.9 µM | 
CN(C)CCNc1cccc2oc3ccc(O)cc3c(=O)c12 | > 437 | 5.75 µM | 
Cc1cc2nc3c4ccccc4scc-3c2cc1C | > 200 | 0.324 µM | 
Ic1ccccc1SSc1ccccc1I | > 200 | 8.71 µM | 
CC1C(c2ccccc2)=Nn2c(=O)n(-c3ccccc3)c(=O)n21 (stereo not drawn) | > 200 | > 200 µM | 
c1ccc2c3nc4ccccc4c-3scc2c1 | > 56.2 | 6.46 µM | 

SMILES | EC50 [µM] | IC50 | outcome
CS(=O)(=O)OCCC(=O)N1CCN(C(=O)CCOS(C)(=O)=O)CC1 | > 200 | 35.5 µM | 
CC(=O)Nc1cc2ccc(C)nc2c2nc(C)ccc12 | > 200 | > 200 µM | 
O=[N+]([O-])c1cc(-c2ccc([As](=O)(O)O)cc2)ccc1[As](=O)(O)O | > 200 | > 200 µM | 
O=S1(=O)Cc2ccccc21 | > 1170 | 589 µM | 
CCCCCCCCCCCCCCCCNc1ccn(C2CC(OP(=O)(O)OCC3OC(n4cc(C)c(=O)[nH]c4=O)CC3N=[N+]=[N-])C(CO)O2)c(=O)n1 (stereo not drawn) | 0.182 | 77.6 µM | 
Cc1cc(S(=O)(=O)Nc2nc(Nc3ccc(Cl)cc3)nn2C)c(S)cc1Cl | > 200 | 83.2 µM | 
Cc1ccccc1NC(=O)Cc1csc2[n+]1C(=O)/C(=C\c1ccc3c(c1)OCO3)S2 | > 200 | 38.9 µM | 
COc1cc(Cc2nnc(Nc3ccccc3)[nH]c2=O)cc(OC)c1OC | > 257 | > 257 µM | 
CCC[CH2][Sn]1([CH2]CCC)[O]CC(CN(C)Cc2ccccc2)[O]1 (stereo not drawn) | > 20.9 | 0.138 µM | 
COC(=O)[C@H](COC(C)(C)C)NC(=O)N[C@H](C)c1ccccc1 | > 200 | > 200 µM | 
CC1SC2=NC3=C(c4ccccc4C3=O)C(c3ccccc3Cl)N2C1=O (stereo not drawn) | > 35.5 | > 35.5 µM | 
O=C(OCC1OC(OC(=O)c2cc(O)c(O)c(OC(=O)c3cc(O)c(O)c(O)c3)c2)C(OC(=O)c2cc(O)c(O)c(OC(=O)c3cc(O)c(O)c(O)c3)c2)C(OC(=O)c2cc(O)c(O)c(OC(=O)c3cc(O)c(O)c(O)c3)c2)C1OC(=O)c1cc(O)c(O)c(OC(=O)c2cc(O)c(O)c(O)c2)c1)c1cc(O)c(O)c(OC(=O)c2cc(O)c(O)c(O)c2)c1 (stereo not drawn) | > 60.3 | 6.76 µM | 
O=C(O)CSCc1cc2c(O)c(c1)Cc1cc(CSCC(=O)O)cc(c1O)Cc1cc(CSCC(=O)O)cc(c1O)Cc1cc(CSCC(=O)O)cc(c1O)C2 | > 22.4 | > 22.4 µM | 
CC(=O)NNc1nc(C)c(C(=O)NNC(=O)C(=O)Nc2c(C)cccc2C(C)C)s1 | > 60.3 | 52.5 µM | 
CC(C)(C)OC(=O)N1Cc2cc(O)ccc2C[C@H]1C(=O)O | > 200 | > 200 µM | 
N.N.N.N.O=C([O-])O.O=C([O-])[O-].[Co+3] |  |  | inactive
CC1(C)O[C@@H]2C[C@H]3[C@@H]4C[C@H](F)C5=CC(=O)C=C[C@]5(C)[C@@]4(F)[C@@H](O)C[C@]3(C)[C@]2(C(=O)CO)O1 | > 2 | 0.00741 µM | 
CCN(CC)C(=O)COc1cc2c(O)c3c(O)c(C)c4c(c13)C(=O)C(C)(OC=CC(OC)C(C)C(OC(C)=O)C(C)C(O)C(C)C(O)C(C)C=CC=C(C)C(=O)N2)O4 (stereo not drawn) | > 155 | > 100 µM | 
Cn1cnc(N)c1S(=O)(=O)Nc1ccccc1Cl | > 562 | > 562 µM | 
COc1ccc(NC(C)=O)cc1C1CCC(=O)N1 (stereo not drawn) |  |  | inactive
COc1cccc(/C=N/N=C(/N)NO)c1 |  |  | inactive
CC(NCCCCNC(C)C(=O)O)C(=O)O (stereo not drawn) | > 631 | > 631 µM | 

SMILES | EC50 [µM] | IC50 | outcome
Cc1ccc([P+](Cc2ccccc2)(c2ccccc2)c2ccc(C)cc2)cc1 | > 200 | 0.741 µM | 
O=C(NC1CCCCC1)NS(=O)(=O)c1ccc2c(c1)CCC2 | > 200 | > 200 µM | 
COc1ccc2cc(Oc3ccc(Cl)cc3)c(=O)oc2c1 | > 200 | > 200 µM | 
c1c2c(cc3c1OCO3)C(c1onc3cc4c(cc13)OCO4)=NCC2 |  |  | inactive
O=S1(=O)NNC(=NCc2ccc(F)cc2)c2ccccc21 |  |  | inactive
CCOC(=O)c1cc2c(=O)cccnc2o1 | > 52.5 | > 52.5 µM | 
O=[N+]([O-])CCc1cccc([N+](=O)[O-])c1 | > 1260 | > 1260 µM | 
N#C/C(=C\N1CCNC1=S)c1nc2ccccc2s1 | > 200 | > 200 µM | 
COCN1C(=O)[C@@H]2CCCN2C(=O)c2ccc(Cl)cc21 | > 200 | > 200 µM | 
OC1(c2ccccc2)C2CCN(CC2)C1CN1CCOCC1 (stereo not drawn) | > 200 | > 200 µM | 
Cn1ccnc1.[O-][Cl+3]([O-])([O-])[O-].[Pt+2].c1ccc(-c2cccc(-c3ccccn3)n2)nc1 | > 200 | 13.5 µM | 
CO/N=C\c1c2c(O)c3c(O)c(C)c4c(c3c1O)C(=O)C(C)(O/C=C\C(OC)C(C)C(OC(C)=O)C(C)C(O)C(C)C(O)C(C)/C=C\C=C(\C)C(=O)N2)O4 (stereo not drawn) | > 151 | 15.8 µM | 
CC1CCN(CC(=O)N2c3ccccc3Sc3cc4ccccc4cc32)CC1 | > 151 | > 151 µM | 
CN(CC#N)C1CCC[C@]1(O)C#C[Si](C)(C)c1ccccc1 (stereo partly drawn) | > 60.3 | 57.5 µM | 
CCN(CC)CCn1c2ccccc2c(=O)c2c(OC)ccc(OC)c21 |  |  | inactive
CCCN1C(=O)c2cc(=O)[nH]c(O)c2C1C (stereo not drawn) | > 117 | 81.3 µM | 
COC(=O)c1ccc(OCc2ccc3nc(OC)c(OC)nc3c2)cc1 | > 4.07 | > 4.07 µM | 
O=C1c2ccccc2-c2cc(N3C(=O)C=CC3=O)ccc21 | > 200 | 17 µM | 
O=S(=O)(c1ccccc1)c1cccc2c1NCCC2 | 21.9 | 95.5 µM | 
CC(=O)Oc1ccccc1C(=O)/C=C/c1ccccc1 | > 132 | 12 µM | 
CC1NOC(=O)C1N=Nc1ccc(Cl)cc1Cl (stereo not drawn) | > 36.3 | > 36.3 µM | 
COc1cc(Cl)c2c3c(c(C(C)=O)oc13)CCC2 |  |  | inactive

SMILES | EC50 [µM] | IC50 | outcome
CCOP(=O)(OCC)C(C(=O)OC)C(=O)C(=O)Nc1ccc(Cl)cc1Cl (stereo not drawn) | > 61.7 | > 61.7 µM | 
C=CCc1cc(OC)c2c(c1)C(O)CC(c1ccc(OC)c(OC)c1)O2 (stereo not drawn) | > 263 | > 263 µM | 
COC(=O)c1ccc(/C=C2\Cc3ccccc3C2=O)cc1 | > 200 | > 200 µM | 
Cc1c(Cl)ccc2c1NC(=O)C2(O)CC(=O)c1ccc(Cl)cc1 (stereo not drawn) | > 31.6 | > 31.6 µM | 
O=C(CO[N+](=O)[O-])OC/C=C/c1ccccc1 |  |  | inactive
CO[C@@H]1[C@H](O)CC[C@]2(CO2)[C@H]1[C@@]1(C)O[C@@H]1CC=C(C)C | > 200 | 85.1 µM | 
COc1ccc2[nH]c(C(=O)N3CC(CCl)c4c3cc(N)c3ccccc43)cc2c1 (stereo not drawn) | > 0.2 | 0.00158 µM | 
c1onc2c1CCCC2 (tested in a mixture with another compound) | > 1620 | > 1620 µM | 
COc1ccc(C2c3[nH]c4ccccc4c3CCN2O)cc1 (stereo not drawn) |  |  | inactive
COC(=O)Nc1nc2ccc(C(=O)C3CC3)cc2[nH]1 | > 200 | 0.219 µM | 
CC(=O)OC1CCn2nnc(COC(=O)NC(C)C)c21 (stereo not drawn) |  |  | inactive
CN(C)CCC1(C)OCCC2=C1Cc1ccccc12 (stereo not drawn) | > 200 | 135 µM | 
COc1cc2c(c(OC)c1OC)C(=O)[C@H](Br)[C@H]2NC(=O)NCCCl | > 200 | 32.4 µM | 
O=C(Cc1ccccc1)NC(C(=O)c1ccccc1)c1ccccc1 (stereo not drawn) | > 79.4 | > 79.4 µM | 
COC1(O)C(=O)c2ccccc2OC1(OC)c1ccccc1 (stereo not drawn) | > 200 | 112 µM | 
O=C/C(=C(/Cl)c1ccc(O)cc1)c1ccccc1 | > 115 | 49 µM | 
Nc1ccc2cc(S(=O)(=O)O)cc(O)c2c1N=Nc1ccc(NC(=O)c2ccc(C(=O)Nc3ccc(N=Nc4c(N)ccc5cc(S(=O)(=O)O)cc(O)c45)c(S(=O)(=O)O)c3)cc2)cc1S(=O)(=O)O |  |  | active
CCOC(=O)C1=C(N)Oc2cc(O)cc(O)c2C1c1ccccc1 (stereo not drawn) |  |  | inactive
COc1ccc2oc(C(=O)O)c3c2c1CCC3CCC(=O)O (stereo not drawn) |  |  | inactive
Nc1nc(Cl)cc(NCCCCCCCCNc2cc(Cl)nc(N)n2)n1 |  |  | inactive
O=C(Nc1ccc(Cl)cc1)Nc1ccc(Cl)c(Cl)c1 | > 200 | 2.95 µM | 
O=C1OCC(C(=O)c2cccc(O)c2)C1=O (stereo not drawn) |  |  | inactive

From PubChem BioAssay AID179 (DTP/NCI, 2004)
